US20250154141A1 (University of Florida Research Foundation, Incorporated, priority 2021, published 2025)
Read-outs that look alike come from different tables or passages of the source. Blank lines part the entries; values can stand above or below the compound they belong to.

Legend:
Format in all cases: cell-based
human platelets = experiment: Platelet toxicity assay (MTS viability); details: for IC50: human platelets, 48 h; for PLT/MOLT-4 IC50 Fold Change / Platelets/MOLT-4 IC50 Fold change: ratio of platelet IC50 to MOLT-4 IC50
Procedure: Platelet-rich plasma (PRP) was purchased from Life South Community Blood Centers (Gainesville, FL, USA). PRP was transferred into a 50 mL tube containing 5 mL of the acid citrate buffer (Cat. No. sc-214744, Santa Cruz Biotechnology). To prevent clotting, prostaglandin E1 (PGE1, Cat. No. sc-201223A, Santa Cruz Biotechnology, Dallas, TX, USA) and apyrase (Cat. No. A6237, Sigma-Aldrich, St. Louis, MO, USA) were added to final concentrations of […] and 0.2 U/mL, respectively. After gently mixing the solution, platelets were pelleted by centrifugation at 1200 g for 10 min without break. Pelleted platelets were gently washed without disturbing platelets using 2 mL of HEPES Tyrode's buffer (Cat. No. PY-921WB, Boston BioProducts, Ashland, MA, USA) containing […] PGE1 and 0.2 U/mL apyrase. After washing, pellets were gently suspended in 10 mL of HEPES Tyrode's buffer containing […] PGE1 and 0.2 U/mL apyrase. Then, the platelet number was counted using a HEMAVET 950FS hematology analyzer (Drew Scientific, Inc., Oxford, CT, USA). For viability assays, the platelet number was adjusted to 2×10^8/mL in HEPES Tyrode's buffer containing […] PGE1 and 0.2 U/mL apyrase. Each treatment was given in 2 mL of the platelet suspension in 15 mL polypropylene tubes. The tubes were placed on a rotating platform at room temperature, and the viability of platelets was measured after 48 h treatment by using the MTS reagent (Cat. No. G1111, Promega, Madison, WI, USA). The data were analyzed by the GraphPad Prism 7 software for the calculation of IC50 values.

RS4; 11 = experiment: Cell viability assay (MTS) in RS4; 11 cells; set-up: Anti-Cancer Activity IC50 (48 hr) RS4; 11: scale not given here
Procedure: (§1) Acute lymphoblastic leukemia cells (MOLT-4 and RS4; 11) were incubated with increasing concentrations of Bcl-xL degraders for 48 h. Cell viability was measured by tetrazolium-based MTS assay.

MOLT-4 = experiment: Cell viability assay (MTS) in MOLT-4 cells
Procedure: as §1

[1] = Homo sapiens, Platelet, Table 4, read-out: Platelets 48 h IC50
[2] = Homo sapiens, RS4-11, Table 4, 48 h, read-out: RS4 48 h IC50
[3] = Homo sapiens, MOLT-4, Table 4, 48 h, read-out: MOLT-4 48 h IC50
[4] = Homo sapiens, Platelet, Table 3, mean of two independent experiments in triplicates, read-out: Platelets 48 h IC50
[5] = Homo sapiens, RS4-11, Table 2, 48 hr, MTS, read-out: Anti-Cancer Activity IC50 (48 hr) RS4, 11
[6] = Homo sapiens, MOLT-4, Table 2, 48 hr, MTS, read-out: Anti-Cancer Activity IC50 (48 hr) MOLT-4
[7] = Homo sapiens, MOLT-4, Table 3, 48 h, mean of two independent experiments in triplicates, read-out: MOLT-4 48 h IC50
[8] = Homo sapiens, Platelet, Table 5, read-out: Platelets 48 h IC50
[9] = Homo sapiens, RS4-11, Table 5, 48 h, read-out: RS4 48 h IC50
[10] = Homo sapiens, MOLT-4, Table 5, 48 h, read-out: MOLT-4 48 h IC50

SMILES: Cc1ncsc1-c1ccc([C@H](C)NC(=O)[C@@H]2C[C@@H](O)CN2C(=O)[C@@H](NC(=O)CCCCCC(=O)N2CCN(CC[C@H](CSc3ccccc3)Nc3ccc(S(=O)(=O)NC(=O)c4ccc(N5CCN(CC6=C(c7ccc(Cl)cc7)CCC(C)(C)C6)CC5)cc4)cc3S(=O)(=O)C(F)(F)F)CC2)C(C)(C)C)cc1 [DT2216, reference compound]
IC50 (human platelets; Table 4, read-out: Platelets 48 h IC50): > 10000 nM | PLT/MOLT-4 IC50 Fold Change (human platelets; Table 4): >150 | IC50 (RS4; 11; Table 4, 48 h, read-out: RS4 48 h IC50): 180 to 230 nM | IC50 (MOLT-4; Table 4, 48 h, read-out: MOLT-4 48 h IC50): 50 to 80 nM

SMILES: Cc1ncsc1-c1ccc([C@H](C)NC(=O)[C@@H]2C[C@@H](O)CN2C(=O)[C@@H](NC(=O)CCCCCCC(=O)N2CCN(C[C@]3(C)CCC(c4ccc(Cl)cc4)=C(CN4CCN(c5ccc(C(=O)NS(=O)(=O)c6ccc(N[C@H](CCN7CCOCC7)CSc7ccccc7)c(S(=O)(=O)C(F)(F)F)c6)cc5)CC4)C3)CC2)C(C)(C)C)cc1 [PZ753B, reference compound]
IC50 (human platelets; [1]): 1050 nM | PLT/MOLT-4 IC50 Fold Change (human platelets; Table 4): 152 | IC50 (RS4; 11; [2]): 5.8 nM | IC50 (MOLT-4; [3]): 6.9 nM

SMILES: Cc1ncsc1-c1ccc([C@H](C)NC(=O)[C@@H]2C[C@@H](O)CN2C(=O)[C@@H](NC(=O)CCCCCCC(=O)N2CCN(CC3(C)CCC(c4ccc(Cl)cc4)=C(CN4CCN(c5ccc(C(=O)NS(=O)(=O)c6ccc(N[C@H](CCN7CCC7)CSc7ccccc7)c([N+](=O)[O-])c6)cc5)CC4)C3)CC2)C(C)(C)C)cc1 (stereo partly drawn) [Compound 37, (2S,4R)-1-((2S)-2-(8-(4-((6-((4-(4-(((4-(((R)-4-(azetidin-1-yl)-1-(phenylthio)butan-2-yl)amino)-3-nitrophenyl)sulfonyl)carbamoyl)phenyl)piperazin-1-yl)methyl)-4′-chloro-4-methyl-2,3,4,5-tetrahydro-[1,1′-biphenyl]-4-yl)methyl)piperazin-1-yl)-8-oxooctanamido)-3,3-dimethylbutanoyl)-4-hydroxy-N—((S)-1-(4-(4-methylthiazol-5-yl)phenyl)ethyl)pyrrolidine-2-carboxamide]
IC50 (human platelets; [8]): 4620 nM | IC50 (RS4; 11; [9]): 7 nM | Anti-Cancer Activity IC50 (48 hr) RS4; 11 (RS4; 11; Table 2, 48 hr, MTS): + + | IC50 (MOLT-4; [6]): < 20 nM | IC50 (MOLT-4; [10]): 20 nM

SMILES: Cc1ncsc1-c1ccc([C@H](C)NC(=O)[C@@H]2C[C@@H](O)CN2C(=O)[C@@H](NC(=O)CCCCCCC(=O)N2CCN(CC3(C)CCC(c4ccc(Cl)cc4)=C(CN4CCN(c5ccc(C(=O)NS(=O)(=O)c6ccc(N[C@H](CCN7CCCC7)CSc7ccccc7)c([N+](=O)[O-])c6)cc5)CC4)C3)CC2)C(C)(C)C)cc1 (stereo partly drawn) [Compound 38, (2S,4R)-1-((2S)-2-(8-(4-((4′-chloro-4-methyl-6-((4-(4-(((3-nitro-4-(((R)-1-(phenylthio)-4-(pyrrolidin-1-yl)butan-2-yl)amino)phenyl)sulfonyl)carbamoyl)phenyl)piperazin-1-yl)methyl)-2,3,4,5-tetrahydro-[1,1′-biphenyl]-4-yl)methyl)piperazin-1-yl)-8-oxooctanamido)-3,3-dimethylbutanoyl)-4-hydroxy-N—((S)-1-(4-(4-methylthiazol-5-yl)phenyl)ethyl)pyrrolidine-2-carboxamide]
IC50 (human platelets; [4]): 3000 nM | Platelets/MOLT-4 IC50 Fold change (human platelets; Table 3): 170 | Anti-Cancer Activity IC50 (48 hr) RS4; 11 (RS4; 11; Table 2, 48 hr, MTS): + ++ | IC50 (MOLT-4; [6]): < 20 nM | IC50 (MOLT-4; [7]): 17.6 nM

SMILES: Cc1ncsc1-c1ccc([C@H](C)NC(=O)[C@@H]2C[C@@H](O)CN2C(=O)[C@@H](NC(=O)CN2CCN(CC(=O)N3CCN(C[C@]4(C)CCC(c5ccc(Cl)cc5)=C(CN5CCN(c6ccc(C(=O)NS(=O)(=O)c7ccc(N[C@H](CCN8C[C@H]9C[C@@H]8CO9)CSc8ccccc8)c(S(=O)(=O)C(F)(F)F)c7)cc6)CC5)C4)CC3)CC2)C(C)(C)C)cc1 [Compound 105]
IC50 (human platelets; Platelet, Table 4, read-out: Platelets 48 h IC50): 777 nM | IC50 (RS4; 11; Homo sapiens, RS4-11, 48 h, read-out: Anti-Cancer Activity IC50 (48 hr) RS4, 11): < 20 nM | IC50 (RS4; 11; Homo sapiens, RS4-11, 48 h, read-out: RS4 48 h IC50): 3 nM | IC50 (MOLT-4; Homo sapiens, MOLT-4, 48 h, read-out: Anti-Cancer Activity IC50 (48 hr) MOLT-4): < 20 nM | IC50 (MOLT-4; Homo sapiens, MOLT-4, 48 h, read-out: MOLT-4 48 h IC50): 4 nM

SMILES: Cc1ncsc1-c1ccc([C@H](C)NC(=O)[C@@H]2C[C@@H](O)CN2C(=O)[C@@H](NC(=O)CCCCCCC(=O)N2CCC(C3CCN(CC4(C)CCC(c5ccc(Cl)cc5)=C(CN5CCN(c6ccc(C(=O)NS(=O)(=O)c7ccc(N[C@H](CCN8C[C@H]9C[C@@H]8CO9)CSc8ccccc8)c(S(=O)(=O)C(F)(F)F)c7)cc6)CC5)C4)CC3)CC2)C(C)(C)C)cc1 (stereo partly shown) [Compound 70]
IC50 (RS4; 11; [5]): < 20 nM | IC50 (MOLT-4; [6]): < 20 nM

More lines, main results first:

IC50 (RS4; 11; [5]): 20 to 100 nM | IC50 (MOLT-4; [6]): < 20 nM | IC50 (MOLT-4; [7]): 17.5 nM
SMILES: Cc1ncsc1-c1ccc([C@H](C)NC(=O)[C@@H]2C[C@@H](O)CN2C(=O)[C@@H](NC(=O)CCCCCNC(=O)c2ccc(N3CCN(CC4(C)CCC(c5ccc(Cl)cc5)=C(CN5CCN(c6ccc(C(=O)NS(=O)(=O)c7ccc(N[C@H](CCN8CCOCC8)CSc8ccccc8)c(S(=O)(=O)C(F)(F)F)c7)cc6)CC5)C4)CC3)cc2)C(C)(C)C)cc1 (stereo partly drawn) [Compound 12, (2S,4R)-1-((2S)-2-(6-(4-(4-((4′-chloro-4-methyl-6-((4-(4-(((4-(((R)-4-morpholino-1-(phenylthio)butan-2-yl)amino)-3-((trifluoromethyl)sulfonyl)phenyl)sulfonyl)carbamoyl)phenyl)piperazin-1-yl)methyl)-2,3,4,5-tetrahydro-[1,1′-biphenyl]-4-yl)methyl)piperazin-1-yl)benzamido)hexanamido)-3,3-dimethylbutanoyl)-4-hydroxy-N—((S)-1-(4-(4-methylthiazol-5-yl)phenyl)ethyl)pyrrolidine-2-carboxamide]
IC50 (human platelets; [4]): 2160 nM | Platelets/MOLT-4 IC50 Fold change (human platelets; Table 3): 123

IC50 (RS4; 11; [5]): < 20 nM | IC50 (RS4; 11; [2]): 1.6 nM | IC50 (MOLT-4; [6]): < 20 nM | IC50 (MOLT-4; [7]): 2.3 nM
SMILES: Cc1ncsc1-c1ccc([C@H](C)NC(=O)[C@@H]2C[C@@H](O)CN2C(=O)[C@@H](NC(=O)CCCCCCC(=O)N2CCN(C[C@]3(C)CCC(c4ccc(Cl)cc4)=C(CN4CCN(c5ccc(C(=O)NS(=O)(=O)c6ccc(N[C@H](CCN7C[C@H]8C[C@@H]7CO8)CSc7ccccc7)c(S(=O)(=O)C(F)(F)F)c6)cc5)CC4)C3)CC2)C(C)(C)C)cc1 [Compound 66]
IC50 (human platelets; [4]): 853 nM | IC50 (human platelets; [1]): 853 nM | IC50 (human platelets; Homo sapiens, Platelet, Table 6, 4 th time, read-out: Platelets 4 th time 48 h IC50): 853 nM | Platelets/MOLT-4 IC50 Fold change (human platelets; Table 3): 370 | PLT/MOLT-4 IC50 Fold Change (human platelets; Table 4): 370 | Platelets/MOLT-4 IC50 Fold change (human platelets; Table 6): 370

IC50 (RS4; 11; [5]): < 20 nM | IC50 (RS4; 11; [2]): < 7 nM | IC50 (MOLT-4; [6]): < 20 nM | IC50 (MOLT-4; [3]): 21 nM
SMILES: Cc1ncsc1-c1ccc([C@H](C)NC(=O)[C@@H]2C[C@@H](O)CN2C(=O)[C@@H](NC(=O)CCCCCCC(=O)N2CCN(C[C@]3(C)CCC(c4ccc(Cl)cc4)=C(CN4CCN(c5ccc(C(=O)NS(=O)(=O)c6ccc(N[C@H](CCN(C)CCO)CSc7ccccc7)c(S(=O)(=O)C(F)(F)F)c6)cc5)CC4)C3)CC2)C(C)(C)C)cc1 [Compound 62]
IC50 (human platelets; [1]): > 10000 nM

IC50 (RS4; 11; [5]): < 20 nM | IC50 (RS4; 11; [9]): 3.7 nM | IC50 (MOLT-4; [6]): < 20 nM | IC50 (MOLT-4; [10]): 1.9 nM
SMILES: Cc1ncsc1-c1ccc([C@H](C)NC(=O)[C@@H]2C[C@@H](O)CN2C(=O)[C@@H](NC(=O)CCCCC(=O)N2CCC(C3CCN(CC4(C)CCC(c5ccc(Cl)cc5)=C(CN5CCN(c6ccc(C(=O)NS(=O)(=O)c7ccc(N[C@H](CCN8C[C@H]9C[C@@H]8CO9)CSc8ccccc8)c(S(=O)(=O)C(F)(F)F)c7)cc6)CC5)C4)CC3)CC2)C(C)(C)C)cc1 (stereo partly shown) [Compound 69]
IC50 (human platelets; [8]): 157 nM

IC50 (RS4; 11; [5]): 20 to 100 nM | IC50 (MOLT-4; [6]): 500 to 10000 nM
SMILES: Cc1ncsc1-c1ccc([C@H](C)NC(=O)[C@@H]2C[C@@H](O)CN2C(=O)[C@@H](NC(=O)CCCCCCC(=O)N2CCN(C[C@]3(C)CCC(c4ccc(Cl)cc4)=C(CN4CCN(c5ccc(C(=O)NS(=O)(=O)c6ccc(N[C@H](CCN7CCOCC78CC8)CSc7ccccc7)c(S(=O)(=O)C(F)(F)F)c6)cc5)CC4)C3)CC2)C(C)(C)C)cc1 [Compound 92]
